# Source: PMC6112376, “Comprehensive Analyses and Prioritization of Tox21 10K Chemicals Affecting Mitochondrial Function by in-Depth Mechanistic Studies” (Environmental Health Perspectives, 2018)
# Read-outs that look alike come from different tables or passages of the source.
# How the values were obtained:
# [1] = tested on: hNSC; test: MMP assay in human neural stem cells (hNSC); assay type: cell-based; details: Homo sapiens, Neural stem cell, 1 h, read-out: hNSC IC50 (MMP)
# [2] = tested on: HepG2 cells; test: ROS-Glo hydrogen peroxide (ROS) assay; assay type: cell-based, human
# [3] = tested on: HepG2 cells; test: Intracellular ATP content (cell viability) assay; assay type: cell-based, human; details: Homo sapiens, HepG2, 40 h
# [4] = tested on: Nrf2/ARE (ARE-bla HepG2 cells); test: ARE β-lactamase reporter gene assay; assay type: cell-based, human; details: Homo sapiens, HepG2; 16 h incubation; mean±SD of three experiments; read-out: ARE (HepG2) EC50
# [5] = tested on: isolated rat liver mitochondria; test: Oxygen consumption, Clark-type oxygen electrode; assay type: biochemical
# [6] = tested on: HeLa cells expressing YFP-Parkin; test: Parkin translocation assay; assay type: cell-based, human
# [7] = tested on: rat primary hepatocytes
# [8] = tested on: HepG2 cells; details: cited from earlier work; for IC50: read-out: MMP assays IC50 (µM) qHTS-HepG2
# [9] = tested on: Caenorhabditis elegans (Bristol N2); details: Bristol N2 (wild type), Caenorhabditis elegans, in vivo
# [10] = tested on: Caenorhabditis elegans strain PE255; details: PE255 [sur-5::luc+::gfp; rol-6(su1006)], Caenorhabditis elegans, in vivo
# [11] = tested on: HepG2 cells; test: cells; details: Homo sapiens; for Emax: HepG2, read-out: MMP assays efficacy (%) HepG2
# [12] = tested on: Caenorhabditis elegans strain PE255; test: In vivo C. elegans ATP status assay; details: for minimal effective concentration: Caenorhabditis elegans, read-out: LEC LUM: lowest effect concentration for luminescence, a measure of nematode ATP content
# [13] = tested on: rat primary hepatocytes; test: MMP assay in rat primary hepatocytes; details: Rattus norvegicus, Hepatocyte
# [14] = tested on: Caenorhabditis elegans (Bristol N2); test: C. elegans larval development and growth assay; details: for minimal effective concentration: Caenorhabditis elegans, read-out: LEC EXT: lowest effect concentration for extinction, a measure of nematode size
# [15] = tested on: p53 (p53-bla HCT-116 cells); test: p53 β-lactamase reporter gene assay; assay type: cell-based, human; details: Homo sapiens; 16 h incubation; mean±SD of three experiments
# [16] = read-out: ATP (HepG2, galactose) IC50
# [17] = read-out: ATP (HepG2, glucose) IC50
# [18] = HepG2, 1 h, read-out: HepG2 IC50 Galactose (MMP)
# [19] = HepG2, 1 h, read-out: HepG2 IC50 Glucose (MMP)
# [20] = HepG2, read-out: MMP assays IC50 (µM) HepG2
# [21] = 1 h, read-out: Rat hepatocytes IC50 (MMP)
# [22] = read-out: MMP assays IC50 (µM) Rat Hepatocytes
compound,measurement,setting,value
CC(C)(C)c1cc([N+](=O)[O-])cc([N+](=O)[O-])c1O [Dinoterb],IC50,[1],10.1 µM
same,EC50,"[2]; Homo sapiens, HepG2, 2 h, read-out: ROS (HepG2) EC50",13.2 µM
same,IC50,[3]; [16],22.3 µM
same,IC50,[3]; [17],19.7 µM
same,EC50,[4],0.52 ± 0.15 µM
same,Potential Mechanism,[5],"Uncoupler at low concentrations (0.032-0.8 µM), and Uncoupler + inhibitor at high concentrations (4-100 µM)"
same,effect on mitochondrial respiration (in words),[5],effects similar to those of FCCP
same,uncoupler effect at (concentration) in the oxygen consumption assay,[5],0.032 µM
same,"I-ADP, % of control (O2 consumption rate)",[5]; 0.0064 µM,103 (38.3) % of control
same,"I-sub, % of control (O2 consumption rate)",[5]; 0.0064 µM,92 (9.9) % of control
same,"II-ADP, % of control (O2 consumption rate)",[5]; 0.0064 µM,105 (66) % of control
same,"II-sub, % of control (O2 consumption rate)",[5]; 0.0064 µM,99 (18.4) % of control
same,"I-ADP, % of control (O2 consumption rate)",[5]; 0.032 µM,95 (41.5) % of control
same,"I-sub, % of control (O2 consumption rate)",[5]; 0.032 µM,135 (17.7) % of control
same,"II-ADP, % of control (O2 consumption rate)",[5]; 0.032 µM,97 (65.4) % of control
same,"I-ADP, % of control (O2 consumption rate)",[5]; 0.16 µM,113 (49.2) % of control
same,"I-sub, % of control (O2 consumption rate)",[5]; 0.16 µM,206 (27.0) % of control
same,"II-ADP, % of control (O2 consumption rate)",[5]; 0.16 µM,106 (72.0) % of control
same,"II-sub, % of control (O2 consumption rate)",[5]; 0.16 µM,264 (55.1) % of control
same,"I-ADP, % of control (O2 consumption rate)",[5]; 0.8 µM,148 (64.4) % of control
same,"I-sub, % of control (O2 consumption rate)",[5]; 0.8 µM,486 (63.7) % of control
same,"II-ADP, % of control (O2 consumption rate)",[5]; 0.8 µM,102 (68.8) % of control
same,"II-sub, % of control (O2 consumption rate)",[5]; 0.8 µM,367 (76.8) % of control
same,"I-ADP, % of control (O2 consumption rate)",[5]; 4 µM,100 (43.7) % of control
same,"I-sub, % of control (O2 consumption rate)",[5]; 4 µM,320 (41.9) % of control
same,"II-ADP, % of control (O2 consumption rate)",[5]; 4 µM,58 (39.5) % of control
same,"II-sub, % of control (O2 consumption rate)",[5]; 4 µM,211 (44.0) % of control
same,"I-ADP, % of control (O2 consumption rate)",[5]; 20 µM,69 (30.1) % of control
same,"I-sub, % of control (O2 consumption rate)",[5]; 20 µM,239 (31.3) % of control
same,"II-ADP, % of control (O2 consumption rate)",[5]; 20 µM,11 (7.7) % of control
same,"II-sub, % of control (O2 consumption rate)",[5]; 20 µM,36 (7.6) % of control
same,"I-ADP, % of control (O2 consumption rate)",[5]; 100 µM,10 (4.9) % of control
same,"I-sub, % of control (O2 consumption rate)",[5]; 100 µM,23 (5.0) % of control
same,"II-ADP, % of control (O2 consumption rate)",[5]; 100 µM,5 (3.1) % of control
same,"II-sub, % of control (O2 consumption rate)",[5]; 100 µM,13 (4.4) % of control
same,Parkin recruitment,[6],Active
same,Parkin translocation into mitochondria (in words),[6]; 3 h,patterns similar to antimycin A and FCCP
same,MMP assays efficacy (%) Rat Hepatocytes,[7],-88±9%
same,Rat hepatocytes (efficacy) (MMP),[7],2.39±1.02 ( −105±23.8 ) %
same,MMP assays efficacy (%) qHTS-HepG2,[8],-95±8%
same,IC50,[8],0.48 µM
same,"LEC (lowest effect concentration), larval growth assay",[9],< 10 µM
same,"LEC (lowest effect concentration), ATP assay",[10],< 10 µM
same,inhibitory effect at (concentration) on ATP content in the C. elegans assay,[10],1.0 µM
same,IC50,[11]; [18],7.19 µM
same,IC50,[11]; [19],7.23 µM
same,IC50,[11]; [20],2.24 µM
same,Emax,[11],101%
same,minimal effective concentration,[12],1 µM
same,IC50,[13]; [21],2.39 µM
same,IC50,[13]; [22],0.76 ± 0.45 µM
same,minimal effective concentration,[14],5 µM
"Nc1ccc(N)c2c1C(=O)c1ccccc1C2=O [1,4-Diaminoanthraquinone]",IC50,[1],0.15 µM
same,ROS (HepG2) EC50,[2],Inactive
same,IC50,[3]; [16],22.3 µM
same,IC50,[3]; [17],24.7 µM
same,EC50,[15],35.7 ± 2.41 µM
same,EC50,[4],22.9 ± 27.4 µM
same,Potential Mechanism,[5],Inactive
same,"I-ADP, % of control (O2 consumption rate)",[5]; 20 µM,89 (44.1) % of control
same,"I-sub, % of control (O2 consumption rate)",[5]; 20 µM,103 (14.2) % of control
same,"II-ADP, % of control (O2 consumption rate)",[5]; 20 µM,90 (80.2) % of control
same,"II-sub, % of control (O2 consumption rate)",[5]; 20 µM,100 (27.1) % of control
same,"I-ADP, % of control (O2 consumption rate)",[5]; 100 µM,82 (23.4) % of control
same,"I-sub, % of control (O2 consumption rate)",[5]; 100 µM,95 (11.4) % of control
same,"II-ADP, % of control (O2 consumption rate)",[5]; 100 µM,97 (35.2) % of control
same,"II-sub, % of control (O2 consumption rate)",[5]; 100 µM,95 (14.1) % of control
same,Parkin recruitment,[6],Inactive
same,MMP assays efficacy (%) Rat Hepatocytes,[7],-93±8%
same,Rat hepatocytes (efficacy) (MMP),[7],3.79±1.62 ( −118±24.7 ) %
same,MMP assays efficacy (%) qHTS-HepG2,[8],-82±13%
same,IC50,[8],0.03 ± 0.01 µM
same,"LEC (lowest effect concentration), ATP assay",[10],≤ 10 µM
same,IC50,[11]; [18],1.13 µM
same,IC50,[11]; [19],0.77 µM
same,IC50,[11]; [20],0.22 µM
same,Emax,[11],81%
same,LUM: mean difference in luminescence (ATP content) relative to plate controls,[12]; 0.5 µM,0.03036
same,LUM: mean difference in luminescence (ATP content) relative to plate controls,[12]; 1 µM,0.08336
same,LUM: mean difference in luminescence (ATP content) relative to plate controls,[12]; 5 µM,0.4462
same,LUM: mean difference in luminescence (ATP content) relative to plate controls,[12]; 10 µM,0.9963
same,LUM: mean difference in luminescence (ATP content) relative to plate controls,[12]; 25 µM,1.526
same,LUM: mean difference in luminescence (ATP content) relative to plate controls,[12]; 50 µM,1.59
same,LUM: mean difference in luminescence (ATP content) relative to plate controls,[12]; 75 µM,2.063
same,LUM: mean difference in luminescence (ATP content) relative to plate controls,[12]; 100 µM,2.457
same,minimal effective concentration,[12],5 µM
same,IC50,[13]; [21],3.79 µM
same,IC50,[13]; [22],1.24 ± 0.76 µM
same,EXT: mean difference in nematode size relative to plate controls,[14]; 0.5 µM,0.03102
same,EXT: mean difference in nematode size relative to plate controls,[14]; 1 µM,0.01427
same,EXT: mean difference in nematode size relative to plate controls,[14]; 5 µM,0.05881
same,EXT: mean difference in nematode size relative to plate controls,[14]; 10 µM,-0.04953
same,EXT: mean difference in nematode size relative to plate controls,[14]; 25 µM,0.1095
same,EXT: mean difference in nematode size relative to plate controls,[14]; 50 µM,0.2596
same,EXT: mean difference in nematode size relative to plate controls,[14]; 75 µM,0.3422
same,EXT: mean difference in nematode size relative to plate controls,[14]; 100 µM,0.4149
same,minimal effective concentration,[14],25 µM
